Reference: a melting point compilation (Tetko et al.; mined from patent text by program, amines drawn as free bases though some values may be those of a salt)
Residues, ends and D or L forms follow the SMILES beside them. *: point of attachment. Cbz = O=C(OCc1ccccc1)*

| SMILES | melting point |
| --- | --- |
| NC(=O)C(O)C1OC(n2cnc3c(N)ncnc32)C(O)C1O (stereo unspecified) | 220 to 222 °C |
| O=C=Nc1c(Br)cccc1Br | 68 to 70 °C |
| CN(C)C=C(C#N)C(=O)NCc1ccccc1Cl | 144 to 146 °C |
| CN(C(=O)COc1nnc(C(F)(F)F)s1)c1ccccc1 | 54 °C |
| COc1ccccc1SCCCCCCCCCC(=O)O | 65 to 66 °C |
| CC(C(N)=O)C(=O)Nc1ccc(OCc2cccc(F)c2)cc1 (stereo unspecified) | 206 °C |
| CCCCCCCCCC[C@H](NP(=O)(c1ccccc1)c1ccccc1)c1ccccc1 | 95 to 96 °C |
| Cc1c(OCC(=O)O)ccc(-c2noc3ccccc23)c1C | 146 to 152 °C |
| Cc1cc(C)cc(C(=O)N2CCC(N3CCC(C(=O)O)(c4ccccc4)CC3)CC2Cc2ccccc2)c1 (stereo unspecified) | 259 °C |
| O=C1CCCCC1C(C[N+](=O)[O-])c1ccc(C(F)(F)F)cc1 (racemic) | 107 to 108 °C |
| CN=C(NC#N)N1CCc2[nH]cnc2C1 | 240 °C |
| COc1cc(C(=O)NNC(=N)N)c(OC)cc1C | 193 °C |
| CCCCCCOc1c(OC)cc(C(=O)NN=C2CCCCC2=Cc2ccccc2)cc1OC | 158 to 160 °C |
| O=C(Cc1ccccc1Nc1c(Cl)cccc1Cl)NO | 164 to 165 °C |
| O=C(O)[C@H]1CC[C@@H](C(=O)N(Cc2ccccc2)OCc2ccccc2)C1 (relative stereo) | 118 to 120 °C |
| CCNCC1CCN(c2nc3c(cc2F)c(=O)c(C(=O)O)cn3CC)C1 (stereo unspecified) | 230 to 232 °C |
| CC(=O)c1ccc(N)c(C#N)c1 | 155 to 159 °C |
| CCOC(=O)c1c(CN(CC)CC)nc2cc(OC)c(OC)cc2c1-c1ccc(OC)c(OC)c1 | 130 to 131 °C |
| COc1cc(Nc2c(C#N)cnc3cc(-c4ccc(C=O)cc4)sc23)cc(OC)c1OC | 268 to 270 °C |
| O=C1N(c2ccc(F)cc2)c2ccccc2C1(O)c1cc2c(cc1O)OCCO2 (stereo unspecified) | 195 to 200 °C |
| COc1ccc(NC(=O)Oc2cccc3ccoc23)cc1 | 157 to 159 °C |
| Cc1c(C2=CCC(c3ccccc3)(N(C)C)CC2)[nH]c2ccc(C#N)cc12 (stereo unspecified) | 180 to 185 °C |
| C[C@H](NC(=O)[C@@H](C)NC(=O)[C@@H](N)CC(=O)O)C1CCCC1 | 204 to 205 °C |
| O=c1ccc(C(F)(F)F)cn1-c1ccc(NCCCN2CCCCC2)cc1Cl | 112 to 115 °C |
| CC(C)[Si](C(C)C)(C(C)C)n1cc(SC(=O)c2ccccc2)c(C(=O)c2ccccc2)c1 | 120 to 122 °C |
| COc1ccc(Cl)cc1C(=O)Cl | 59 to 60 °C |

| SMILES | melting point |
| --- | --- |
| COc1ccc(C#N)cc1C=O | 115 to 118 °C |
| COC(=O)[C@H](Cc1c[nH]cn1)NC(=O)[C@H](Cc1ccccc1)NC(=O)[C@H](Cc1ccccc1)NC(=O)OCc1ccccc1 (Cbz-Phe-Phe-His-OMe) | 204 to 206 °C |
| C#Cc1ccc2c(c1)C(c1ccccc1)=NC(C)c1c(C(=O)OCC)ncn1-2 (stereo unspecified) | 197 to 199 °C |
| NC(=O)N(O)[C@H]1CC[C@@H](Sc2ccccc2)C1 (relative stereo) | 146 to 148 °C |
| Cc1oc(COc2ccccc2/C=C/CO)nc1-c1ccccc1 | 128 to 129 °C |
| Cc1ccc(-c2nccc3c(CC#N)cccc23)cc1 | 102 °C |
| COc1cc2c(c(Cl)c1Cl)SCC2=O | 178 to 180 °C |
| Oc1ccc2c(CCC3CCN(Cc4ccccc4)CC3)noc2c1 | 148 to 149 °C |
| CS(=O)(=O)c1ccc(-c2nc(C(F)(F)F)nc(NN)c2-c2ccc(F)cc2)cc1 | 286 to 290 °C |
| COc1cc(-c2ccccn2)cc([N+](=O)[O-])c1OC | 89 to 90 °C |
| CC(CO)Nc1cc(Oc2nn(C)c(C(F)(F)F)c2Cl)ccc1[N+](=O)[O-] (stereo unspecified) | 118 to 120 °C |
| CCc1nc(N)nc(N)c1-c1ccc(NCCc2ccccc2)c([N+](=O)[O-])c1 | 222 to 225 °C |
| Cc1ccc(OCn2cc(Cl)cnc2=O)cc1 | 186 °C |
| O=C1OC(COc2ccccc2)CN1CCOC1CCCCO1 (stereo unspecified) | 78 to 80 °C |
| CCCCn1cc(C(=O)OCC)c(NC(=S)Nc2ccccc2)n1 | 93 to 95 °C |
| CCCc1ccc(-c2ccc3c(c2)C=C(C(=O)OC)CCS3(=O)=O)cc1 | 155 to 156 °C |
| O=Cc1ccc(CBr)c(Cl)c1 | 64 to 66 °C |
| Cn1c(-c2ccc([N+](=O)[O-])cc2)nc2ccccc21 | 208 to 209 °C |
| CCc1cccc(CC)c1NC(=S)NC(C)(C)CC | 85 to 87 °C |
| CC(C#N)(c1ccccc1)c1ccc([N+](=O)[O-])cc1 (stereo unspecified) | 76 to 78 °C |
| Oc1nc2cc(Cl)cc(Cl)c2c(O)c1O | 270 to 273 °C |
| Cc1cc(Br)cc(C(=O)Nc2ccc(F)cn2)n1 | 160 °C |
| CCN(CC1CCCC1)c1nc2c(cc1CN(Cc1cc(C(F)(F)F)cc(C(F)(F)F)c1)c1nc(C(F)(F)F)co1)c(C)nn2C | 139 °C |
| O=C1c2ccccc2C(=O)N1Cc1ncc(C(F)(F)F)cc1Cl | 145 to 146 °C |
| C#Cc1ccc2c(c1)c1cc(-c3ccc(Cl)cc3Cl)c(=O)n(C)c1n2C | 184 to 185 °C |
| CCOc1ncnc2c(N3CCOCC3)nc(N3CCNCC3)nc12 | 168 to 170 °C |

| SMILES | melting point |
| --- | --- |
| CCCC[C@H](CO)C(=O)NOCc1ccccc1 | 100 to 102 °C |
| CSc1cc(C(=O)c2cnoc2C2CC2)ccc1C | 85.5 to 86.1 °C |
| Fc1cc(F)cc(Cn2c(S)nc3ccccc32)c1 | 179 to 180 °C |
| CS(=O)(=O)Nc1ccc(Cl)cc1C(=Cc1ccc2ccccc2c1)C(N)=O | 179 to 184 °C |
| COc1ccc(Cn2cnc3c(Cl)ncnc32)cc1OC | 159 to 163 °C |
| Cn1cc(-c2ccnc(N[C@H]3CC[C@H](O)CC3)n2)c2ccccc21 | 194 to 195 °C |
| Cn1cnc(S(=O)(=O)N2CCn3c(c(C(N)=O)c(Cl)c3-c3ccccc3)C2)c1 | 260 to 263 °C |
| COC(=O)C=C(C)NCC(O)CO (stereo unspecified) | 109 to 111 °C |
| O=C(O)C1(c2ccccc2)CC2CC2C1 (stereo unspecified) | 78 to 125 °C |
| Cc1cccc(-c2c(CBr)n(C)c(=O)n(C)c2=O)c1 | 136 to 137 °C |
| O=C(O)Cc1cccc(CCNC(=O)C2Cc3ccccc3N2S(=O)(=O)c2ccc(-c3cccc(C(F)(F)F)c3)cc2)c1 (stereo unspecified) | 90 °C |
| COC(=O)C(=O)c1ccc(OCCCCOc2ccc3ccccc3c2)cc1 | 93 to 95 °C |
| O=CCCC[C@@H](C(=O)O)N1C(=O)c2ccccc2C1=O | 219 to 222 °C |
| CCCCc1nc(C)c(CC(=S)N2CCC2)c(=O)n1Cc1ccc(-c2ccccc2-c2nnn[nH]2)cc1 | 92.4 to 93.8 °C |
| CN(Cc1ccc(NC(=O)C2=Cc3cc(-c4ccc(C(F)(F)F)cc4)ccc3S(=O)(=O)CC2)cc1)C1CCOCC1 | 270 to 272 °C |
| C[C@H](N[C@H]1CC[C@@H](c2ccccc2)CC1)[C@@H](O)c1ccc(O)cc1 | 199 to 212 °C |
| CCCCn1cc(S(C)=O)c(=O)c2sccc21 (stereo unspecified) | 137 to 138 °C |
| CNC(=O)[C@@H]1C[C@@H](OCc2ccccc2)CN1S(=O)(=O)c1ccc(Cl)c(CBr)c1Cl | 62 to 64 °C |
| CC(C)(C)c1cccc(S(=O)(=O)n2c(C(F)c3ccc(C(=O)O)cc3)cc3cc(C(F)(F)F)ccc32)c1 (stereo unspecified) | 170 °C |
| CCCS(=O)(=O)c1sc(C(N)=O)c2c1-c1c(cnn1CC)CC2 | 143 to 144 °C |
| Cc1cc2ncc(-c3ccc(C(C)(C)C)cc3)c(N)n2n1 | 218 °C |
| CC(CC(=O)O)n1nnnc1S (stereo unspecified) | 169 to 172 °C |
| CCOC(=O)c1cc2c(nc(C)n2C)c2c1CCC(c1ccccc1)O2 (stereo unspecified) | 172 to 173 °C |
| CCc1nc2c(N)nc3ccccc3c2n1CCCC1(C)OCCO1 | 195 to 196 °C |
| C=CCc1cc(Cl)cc2nc(Cc3ccc(OC)c(OC4CCCC4)c3)oc12 | 43 to 44 °C |
| COc1cc2c(c(-c3cccc(Cl)c3Cl)c1)OC(CN)C2 (stereo unspecified) | 159 to 161 °C |

| SMILES | melting point |
| --- | --- |
| COc1ccc(CC(=O)c2c(O)c3cccnc3n(-c3ccccc3)c2=O)c(OC)c1 | 200 to 202 °C |
| Cc1cccc2sc(-n3nc(CCC(=O)N(C)O)cc3-c3ccsc3)nc12 | 142 to 143 °C |
| CCCc1nn(-c2ccc(C(F)(F)F)cn2)cc1CO | 120 to 121 °C |
| CCOC(=Cc1ccc(-c2cccc(N(C)C(=O)NC3CCCCC3)c2)cc1)C(=O)O | 85 °C |
| NP(N)(=S)NC1CCCCC1 | 148 to 150 °C |
| COc1ccc2[nH]c(C(N)=O)cc2c1 | 204 to 205 °C |
| CCCCCC(C)C(C)c1cc(O)c2c(c1)OC(C)(C)C1=C2CN(CC(=O)O)CC1 (stereo unspecified) | 192 to 195 °C |
| CCN1CCN(CC(=O)NC2(c3cc4ccccc4o3)C(=O)Nc3cc(Cl)cc(Cl)c32)CC1 (single isomer, unassigned; (+)) | 192 to 196 °C |
| CC(=O)NC[C@H]1NC(=O)[C@H]1NC(=O)Cc1ccccc1 (relative stereo) | 200 to 202 °C |
| COc1ccc(N)cc1CNC(C)=O | 123 to 125 °C |
| CC(=O)NC1=C(N2CCN(Cc3ccccc3)CC2)C(=O)c2ccccc2C1=O | 153 to 155 °C |
| CC(C)(C)OC(=O)N1CC(CCl)c2c1ccc1ccc(S(=O)(=O)N(Cc3ccccc3)Cc3ccccc3)cc21 (stereo unspecified) | 131 to 133 °C |
| Cc1cc2c(c(C)c1S(=O)(=O)C[N+](=O)[O-])CCCO2 | 136 to 138 °C |
| FC(F)(F)C1(c2cc(Cl)cc(Cl)c2)CC(c2ccc(CCl)cc2)=NO1 (stereo unspecified) | 98 to 100 °C |
| COc1cn(-c2cccc(Br)c2F)nc(-c2ccnn2-c2ccccc2)c1=O | 186 to 191 °C |
| Oc1ccc(NC2Cc3ccccc3C2)cc1 | 165 to 167 °C |
| Cc1c(Br)c(C)c2c(OS(=O)(=O)C(F)(F)F)coc2c1C | 54 to 55 °C |
| CC(C)(C)c1nc2cc(N3CCSCC3)c([N+](=O)[O-])cc2s1 | 117 to 120 °C |
| NS(=O)(=O)c1cc(C(=O)O)cc([N+](=O)[O-])c1Oc1ccccc1 | 255 to 256 °C |
| Sc1nc2cccccc-2n1 | 300 °C |
| O=C(Nc1ccc(-n2nc(C(F)(F)F)cc2C(F)(F)F)cc1)c1c(F)cc(Cl)cc1Cl | 185 to 188 °C |
| CC(C)(C)c1ccc2c(c1)C(=O)c1ccc(-c3nnn[nH]3)cc1S2(=O)=O | 228 °C |
| Cc1cc(N(C)[C@H]2CN(C(=O)CC#N)CC[C@H]2C)n2ncnc2n1 | 119 °C |
